Peptide text beside a SMILES is read from it.
Details: mouse, in vivo, ip
Method: Finally, to examine whether 6KApoEp did enter the brain to interact with APP, we aimed to identify 6KApoEp in vehicle- and 6KApoEp-treated APP/PS1/E2/E3/E4 mouse brains by Western blotting with antibody against LDLR binding domain (residues 133–152) of human apoE that is the analogous epitope as 6KApoEp except for 6K. […] Moreover, we examined the stability of 6KApoEp in the mouse plasma at different incubation times (i.e., 0, 3, 6, 12, and 24 h) at 37 °C by Western blotting using the same antibody.
The right five lanes denote a series of 6KApoEp calibration peptides (i.e., 20, 40, 80, 160, and 320 ng). Brain homogenates were obtained from APP/PS1/E2 mice that received vehicle (APP/PS1/E2-V) or 6KApoEp (APP/PS1/E2-6KApoEp), APP/PS1/E3 mice that received vehicle (APP/PS1/E3-V) or 6KApoEp (APP/PS1/E3-6KApoEp), and APP/PS1/E4 mice that received vehicle (APP/PS1/E4-V) or 6KApoEp (APP/PS1/E4-6KApoEp) for 3 months starting at 12 months of age. B, Western blotting data for the calibration graph were obtained from a series of 6KApoEp calibration peptides (i.e., 20, 40, 80, 160, and 320 ng). […] Western blotting data for (B) included each mouse (n = 4 per group with two of each sex), and quantitative data were averaged. […] D, the experiment was performed four times, and quantitative data were averaged (Table S23). […]

## CC(C)C[C@H](NC(=O)[C@H](CCCNC(=N)N)NC(=O)[C@@H](NC(=O)[C@H](CCCNC(=N)N)NC(=O)[C@H](CC(C)C)NC(=O)[C@H](CCCCN)NC(=O)[C@H](CCCCN)NC(=O)[C@H](CCCCN)NC(=O)[C@H](CCCCN)NC(=O)[C@H](CCCCN)NC(=O)[C@@H](N)CCCCN)C(C)C)C(=O)N[C@@H](C)C(=O)N[C@@H](CO)C(=O)N[C@@H](Cc1c[nH]cn1)C(=O)N[C@@H](CC(C)C)C(=O)N[C@@H](CCCNC(=N)N)C(=O)N[C@@H](CCCCN)C(=O)N[C@@H](CC(C)C)C(=O)N[C@@H](CCCNC(=N)N)C(=O)N[C@@H](CCCCN)C(=O)N[C@@H](CCCNC(=N)N)C(=O)N[C@@H](CC(C)C)C(=O)N[C@@H](CC(C)C)C(=O)N[C@@H](CCCNC(=N)N)C(=O)N[C@@H](CC(=O)O)C(=O)N[C@@H](C)C(=O)O [6KApoEp] (H-KKKKKKLRVRLASHLRKLRKRLLRDA-OH)
  Whole-brain 6KApoEp level relative to the daily dose (7.5 μg): 3.4-6.7 times the daily dose

From publication PMC10331488, “Targeting apolipoprotein E and N-terminal amyloid β-protein precursor interaction improves cognition and reduces amyloid pathology in Alzheimer’s mice” (The Journal of Biological Chemistry, 2023)
